Test results: ChEMBL document CHEMBL5360581, “Discovery of a novel dual functional phenylpyrazole-styryl hybrid that induces apoptotic and autophagic cell death in bladder cancer cells” (Eur J Med Chem, 2023)
The source made the active and inactive calls. The rule behind the calls is not given here.

Key:
[1] = tested on: SW-620; assay: Antiproliferative activity against human SW620 cells assessed as reduction in cell viability at 20 uM measured for 72 hrs by MTT assay; format: functional, cell-based
[2] = tested on: A549; assay: Antiproliferative activity against human A549 cells assessed as reduction in cell viability at 20 uM measured for 72 hrs by MTT assay; format: functional, cell-based
[3] = tested on: EJ-28; assay: Antiproliferative activity against human EJ-28 cells assessed as reduction in cell viability at 20 uM measured for 72 hrs by MTT assay; format: functional, cell-based
[4] = tested on: HT-1080; assay: Antiproliferative activity against human HT-1080 cells assessed as reduction in cell viability at 20 uM measured for 72 hrs by MTT assay; format: functional, cell-based
[5] = tested on: MCF7; assay: Antiproliferative activity against human MCF7 cells assessed as reduction in cell viability at 20 uM measured for 72 hrs by MTT assay; format: functional, cell-based
[6] = tested on: SW-620; assay: Cytotoxicity against human SW620 cells assessed inhibition of cell growth incubated for 72 hrs by MTT assay; format: functional, cell-based; conditions: SW-620, 72 h
[7] = tested on: A549; assay: Cytotoxicity against human A549 cells assessed inhibition of cell growth incubated for 72 hrs by MTT assay; format: functional, cell-based; conditions: A549, 72 h
[8] = tested on: EJ-28; assay: Cytotoxicity against human EJ-28 cells assessed inhibition of cell growth incubated for 72 hrs by MTT assay; format: functional, cell-based; conditions: EJ-28, 72 h
[9] = tested on: HT-1080; assay: Cytotoxicity against human HT-1080 cells assessed inhibition of cell growth incubated for 72 hrs by MTT assay; format: functional, cell-based; conditions: HT-1080, 72 h
[10] = tested on: MCF7; assay: Cytotoxicity against human MCF7 cells assessed inhibition of cell growth incubated for 72 hrs by MTT assay; format: functional, cell-based; conditions: MCF7, 72 h
[11] = Cytotoxicity against human NHDF cells assessed inhibition of cell growth incubated for 72 hrs by MTT assay; format: toxicity, cell-based
[12] = Selectivity index, ratio of IC50 for cytotoxicity against human NHDF cells to IC50 for cytotoxicity against human SW620 cells
[13] = Selectivity index, ratio of IC50 for cytotoxicity against human NHDF cells to IC50 for cytotoxicity against human A549 cells; format: toxicity, cell-based; conditions: NHDF cells and A549 cells, read-out: Ratio IC50
[14] = Selectivity index, ratio of IC50 for cytotoxicity against human NHDF cells to IC50 for cytotoxicity against human EJ-28 cells
[15] = Selectivity index, ratio of IC50 for cytotoxicity against human NHDF cells to IC50 for cytotoxicity against human HT-1080 cells
[16] = Selectivity index, ratio of IC50 for cytotoxicity against human NHDF cells to IC50 for cytotoxicity against human MCF7 cells; format: toxicity, cell-based; conditions: NHDF cells and MCF7 cells, read-out: Ratio IC50

Row | Structure (SMILES) | Activity [1] | Activity [2] | Activity [3] | Activity [4] | Activity [5] | IC50 [6] [µM] | IC50 [7] [µM] | IC50 [8] [µM] | IC50 [9] [µM] | IC50 [10] [µM] | IC50 at 72 h [11] [µM] | Ratio IC50 [12] | selectivity ratio [13] | Ratio IC50 [14] | Ratio IC50 [15] | selectivity ratio [16]
1 | Cc1ccc(/C=C/c2cc(-c3ccccc3O)n(-c3ccccc3)n2)s1 | Active | Active | Active | Active | Active | 16.2 | 14.5 | 11 | 14.2 | 12.6 | 17.9 | 1.1 | 1.1 | 1.1 | 1.1 | 1.1
2 | Oc1ccccc1-c1cc(/C=C/c2ccc(Cl)cc2)nn1-c1ccccc1 | Active | Active | Active | Active | Active | 16.5 | 26.3 | 13.4 | 15.8 | 15.2 | 40.5 | 1.5 | 1.5 | 1.5 | 1.5 | 1.5
3 | COc1cc(/C=C/c2cc(-c3ccccc3O)n(-c3ccccc3)n2)cc(OC)c1OC | Active | Active | Active | Active | Active | 7.6 | 14.6 | 12.3 | 14.1 | 10.4 | > 50 | >3.4 | > 3.4 | >3.4 | >3.4 | > 3.4
4 | COc1ccc(/C=C/c2cc(-c3cc(Cl)ccc3O)n(-c3ccccc3)n2)cc1OC | Active | Active | Active | Active | Active | 16.1 | 15.3 | 17.6 | 14.5 | 9.6 | 39.9 | 2.5 | 2.5 | 2.5 | 2.5 | 2.5
5 | Oc1ccccc1-c1cc(/C=C/c2cccs2)nn1-c1ccccc1 | Active | Active | Active | Active | Active | 11.9 | 18.5 | 14.3 | 12.8 | 9.1 | 19.2 | 1 | 1 | 1 | 1 | 1
6 | Oc1ccc(Cl)cc1-c1cc(/C=C/c2ccc(Cl)s2)nn1-c1ccccc1 | Active | Active | Active | Active | Active | 10.4 | 13.3 | 10.1 | 13.5 | 8.7 | 19.2 | 1.4 | 1.4 | 1.4 | 1.4 | 1.4
7 | Oc1ccc(Cl)cc1-c1cc(/C=C/c2cccc(Cl)c2)nn1-c1ccccc1 | Active | Active | Active | Active | Active | 8.8 | 13.3 | 3.7 | 12.4 | 8.1 | 16.2 | 1.2 | 1.2 | 1.2 | 1.2 | 1.2
8 | O=[N+]([O-])c1cccc(/C=C/c2cc(-c3ccccc3O)n(-c3ccccc3)n2)c1 | Active | Active | Active | Active | Active | 9.7 | 21.7 | 7.4 | 16.5 | 15 | 42.9 | 2 | 2 | 2 | 2 | 2
9 | Oc1ccc(Cl)cc1-c1cc(/C=C/c2ccc(Cl)c(Cl)c2)nn1-c1ccccc1 | Active | Active | Active | Active | Active | 19.2 | 20.2 | 4.4 | 17.8 | 15 | 40.2 | 2 | 2 | 2 | 2 | 2
10 | Oc1ccccc1-c1cc(/C=C/c2ccc(Cl)s2)nn1-c1ccccc1 | Active | Active | Active | Active | Active | 16.3 | 21.1 | 13.6 | 17.3 | 14.5 | 18.5 | 0.9 | 1.1 | 1.1 | 1.1 | 1.1
11 | COc1ccc(/C=C/c2cc(-c3cc(Cl)ccc3O)n(-c3ccccc3)n2)cc1 | Active | Active | Active | Active | Active | 19.8 | 20.9 | 14.3 | 17.2 | 12.1 | 47 | 2.2 | 2.2 | 2.2 | 2.2 | 2.2
12 | COc1ccc(/C=C/c2cc(-c3ccccc3O)n(-c3ccccc3)n2)cc1 | Active | Active | Active | Active | Active | 7.9 | 20.8 | 12.9 | 14.7 | 13 | > 50 | >2.4 | > 2.4 | >2.4 | >2.4 | > 2.4
13 | Oc1ccccc1-c1cc(/C=C/c2ccc(Cl)c(Cl)c2)nn1-c1ccccc1 | Active | Active | Active | Active | Active | 18.6 | 21.5 | 15.9 | 22.2 | 18.1 | 43.5 | 2 | 2 | 2 | 2 | 2
14 | O=c1[nH]cc(F)c(=O)[nH]1 [FLUOROURACIL] | – | – | – | – | – | 32.5 | 7.6 | 11.4 | 6 | – | > 50 | 1.5 | – | 1.5 | 1.5 | –
